Measured values as given in US11434242B2, “Dopamine-b-hydroxylase inhibitors” (BIAL-PORTELA & Cª, S.A., priority 2017, dated 2022).

Target: T1, Dopamine beta hydroxylase (Homo sapiens, UniProt P09172)
T1 construct: 125 μl of plasma; tissue Instituto Português do Sangue Transplantação; host or cells: human plasma from healthy donors
T1 sequence (P09172 40-617 limits assumed): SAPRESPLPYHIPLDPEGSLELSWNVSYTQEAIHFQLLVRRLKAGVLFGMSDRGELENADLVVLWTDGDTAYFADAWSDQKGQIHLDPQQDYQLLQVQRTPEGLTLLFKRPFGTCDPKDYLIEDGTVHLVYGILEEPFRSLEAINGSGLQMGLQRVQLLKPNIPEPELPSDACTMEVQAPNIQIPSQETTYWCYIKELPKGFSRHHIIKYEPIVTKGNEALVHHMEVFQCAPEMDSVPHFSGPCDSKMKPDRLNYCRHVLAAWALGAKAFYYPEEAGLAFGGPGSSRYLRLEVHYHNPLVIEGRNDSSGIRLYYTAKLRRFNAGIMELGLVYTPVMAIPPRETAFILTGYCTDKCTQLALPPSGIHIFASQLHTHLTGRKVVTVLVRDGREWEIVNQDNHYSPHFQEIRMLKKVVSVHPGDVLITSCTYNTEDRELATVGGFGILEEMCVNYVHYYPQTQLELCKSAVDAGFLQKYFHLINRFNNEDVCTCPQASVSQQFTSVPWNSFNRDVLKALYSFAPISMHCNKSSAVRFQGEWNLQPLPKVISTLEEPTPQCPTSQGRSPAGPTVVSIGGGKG
Test: Dopamine beta hydroxylase activity in human plasma
Type: biochemical
Conditions: for Plasma (0.1 μM), activity in % of control: inhibitor 0.1 μM; for Plasma (1 μM), activity in % of control: inhibitor 1 μM; for Plasma (0.01 μM), activity in % of control: inhibitor 0.01 μM
Outline: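 Octopamine production from tyramine over 45 min at 37° C, measured photometrically at 330 nm after SCX extraction and periodate oxidation against an octopamine standard curve, indicates plasma DβH activity. Compounds tested at final 10, 100 and 1000 nM in human plasma, pH 5.0 cofactor buffer, 10 min preincubation; results as % of control.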

Plasma (0.1 μM), activity in % of control | Plasma (1 μM), activity in % of control | Plasma (0.01 μM), activity in % of control | SMILES
31.0 % of control | 2.6 % of control | – | CS(=O)(=O)NC(=O)Cc1[nH]c(=S)n2c1C[C@@H](c1c(F)ccc(Br)c1F)C2 [Example 20, (S)-2-(6-(3-bromo-2,6-difluorophenyl)-3-thioxo-2,5,6,7-tetrahydro-3H-pyrrolo[1,2-c]imidazol-1-yl)-N-(methylsulfonyl)acetamide]
17.1 % of control | 0.9 % of control | – | O=C(Cc1[nH]c(=S)n2c1[C@@H]1C[C@]1(c1cc(Br)ccc1F)C2)NC1CCOC1 (stereo partly drawn) [Example 148, 2-((5aS,6aR)-5a-(5-bromo-2-fluorophenyl)-3-thioxo-2,3,5,5a,6,6a-hexahydrocyclopropa[3,4]pyrrolo[1,2-c]imidazol-1-yl)-N-(tetrahydrofuran-3-yl)acetamide]
28.2 % of control | – | 83.5 % of control | Cn1c(CC(=O)NCC(F)(F)F)c2n(c1=S)C[C@@]1(c3cc(Br)ccc3F)C[C@@H]21 [Example 298, 2-((5aS,6aR)-5a-(5-bromo-2-fluorophenyl)-2-methyl-3-thioxo-2,3,5,5a,6,6a-hexahydrocyclopropa[3,4]pyrrolo[1,2-c]imidazol-1-yl)-N-(2,2,2-trifluoroethyl)acetamide]
12.2 % of control | – | 61.2 % of control | Cn1c(CC(=O)NCC#N)c2n(c1=S)C[C@@]1(c3cc(Br)ccc3F)C[C@@H]21 [Example 305, 2-((5aS,6aR)-5a-(5-bromo-2-fluorophenyl)-2-methyl-3-thioxo-2,3,5,5a,6,6a-hexahydrocyclopropa[3,4]pyrrolo[1,2-c]imidazol-1-yl)-N-(cyanomethyl)acetamide]
6.3 % of control | – | 51.9 % of control | CS(=O)(=O)C1CCN(C(=O)Cc2[nH]c(=S)n3c2C[C@@H](c2c(F)ccc(Br)c2F)C3)CC1 [Example 123, (S)-2-(6-(3-bromo-2,6-difluorophenyl)-3-thioxo-2,5,6,7-tetrahydro-3H-pyrrolo[1,2-c]imidazol-1-yl)-1-(4-(methylsulfonyl)piperidin-1-yl)ethan-1-one]
64.8 % of control | – | 94.3 % of control | Cn1c(CCNC(C)(C)C)c2n(c1=S)C[C@@H](c1c(F)ccc(F)c1F)C2 [Example 476, (R)-1-(2-(tert-butylamino)ethyl)-2-methyl-6-(2,3,6-trifluorophenyl)-2,5,6,7-tetrahydro-3H-pyrrolo[1,2-c]imidazole-3-thione Hydrofluoride]
24.9 % of control | – | 90.1 % of control | CN(C)C(=O)C1CCN(C(=O)Cc2c3n(c(=S)n2C)C[C@@H](c2c(F)ccc(F)c2F)C3)C1 (stereo partly drawn) [Example 358, N,N-dimethyl-1-(2-((R)-2-methyl-3-thioxo-6-(2,3,6-trifluorophenyl)-2,5,6,7-tetrahydro-3H-pyrrolo[1,2-c]imidazol-1-yl)acetyl)pyrrolidine-3-carboxamide]
54.3 % of control | 10.3 % of control | – | O=C(Cc1[nH]c(=S)n2c1C[C@H](c1c(F)c(F)cc(F)c1F)C2)NCC1CC1 [Example 79, (R)—N-(cyclopropylmethyl)-2-(6-(2,3,5,6-tetrafluorophenyl)-3-thioxo-2,5,6,7-tetrahydro-3H-pyrrolo[1,2-c]imidazol-1-yl)acetamide]
75.4 % of control | – | 99.6 % of control | Cn1c(CC(N)=O)c2n(c1=S)C[C@@]1(c3cc(Cl)ccc3F)C[C@@H]21 [Example 282, 2-((5aS,6aR)-5a-(5-chloro-2-fluorophenyl)-2-methyl-3-thioxo-2,3,5,5a,6,6a-hexahydrocyclopropa[3,4]pyrrolo[1,2-c]imidazol-1-yl)acetamide]
58.1 % of control | – | 88.3 % of control | CS(=O)(=O)C1CCN(C(=O)Cc2[nH]c(=S)n3c2C[C@H](c2c(F)ccc(Br)c2F)C3)C1 (stereo partly drawn) [Example 135, 2-((R)-6-(3-bromo-2,6-difluorophenyl)-3-thioxo-2,5,6,7-tetrahydro-3H-pyrrolo[1,2-c]imidazol-1-yl)-1-(3-(methylsulfonyl)pyrrolidin-1-yl)ethan-1-one]
29.1 % of control | – | 72.5 % of control | O=C(Cc1[nH]c(=S)n2c1C[C@H](c1c(F)c(F)cc(F)c1F)C2)NC1CCCCC1O (stereo partly drawn) [Example 29, N-(2-hydroxycyclohexyl)-2-((R)-6-(2,3,5,6-tetrafluorophenyl)-3-thioxo-2,5,6,7-tetrahydro-3H-pyrrolo[1,2-c]imidazol-1-yl)acetamide]
16.5 % of control | – | 46.2 % of control | Cn1c(CC(=O)Nc2cnsc2)c2n(c1=S)C[C@@H](c1c(F)ccc(F)c1F)C2 [Example 351, (R)—N-(isothiazol-4-yl)-2-(2-methyl-3-thioxo-6-(2,3,6-trifluorophenyl)-2,5,6,7-tetrahydro-3H-pyrrolo[1,2-c]imidazol-1-yl)acetamide]
20.9 % of control | – | 59.6 % of control | O=C(Cc1[nH]c(=S)n2c1C[C@@H](c1c(F)ccc(Br)c1F)C2)N[C@@H]1CCCOC1 [Example 402, 2-((S)-6-(3-bromo-2,6-difluorophenyl)-3-thioxo-2,5,6,7-tetrahydro-3H-pyrrolo[1,2-c]imidazol-1-yl)-N—((R)-tetrahydro-2H-pyran-3-yl)acetamide]
6.8 % of control | – | 44.3 % of control | O=C(Cc1[nH]c(=S)n2c1C[C@@H](c1c(F)ccc(Br)c1F)C2)N1CCS(=O)(=O)CC1 [Example 136, (S)-2-(6-(3-bromo-2,6-difluorophenyl)-3-thioxo-2,5,6,7-tetrahydro-3H-pyrrolo[1,2-c]imidazol-1-yl)-1-(1,1-dioxidothiomorpholino)ethan-1-one]
73.5 % of control | – | 94.6 % of control | Cl.Fc1cc(F)c(F)c([C@H]2Cc3c(CN4CCCC4)[nH]c(=S)n3C2)c1F [Example 210, (R)-1-(pyrrolidin-1-ylmethyl)-6-(2,3,5,6-tetrafluorophenyl)-2,5,6,7-tetrahydro-3H-pyrrolo[1,2-c]imidazole-3-thione hydrochloride]
59.3 % of control | – | 116.3 % of control | O=C(Cc1[nH]c(=S)n2c1C[C@H](c1c(F)ccc(F)c1F)C2)NC1CCOCC1 [Example 376, (R)—N-(tetrahydro-2H-pyran-4-yl)-2-(3-thioxo-6-(2,3,6-trifluorophenyl)-2,5,6,7-tetrahydro-3H-pyrrolo[1,2-c]imidazol-1-yl)acetamide]
22.2 % of control | – | 55.8 % of control | Cn1c(CC(=O)Nc2nncs2)c2n(c1=S)C[C@H](c1c(F)ccc(Cl)c1F)C2 [Example 285, (S)-2-(6-(3-chloro-2,6-difluorophenyl)-2-methyl-3-thioxo-2,5,6,7-tetrahydro-3H-pyrrolo[1,2-c]imidazol-1-yl)-N-(1,3,4-thiadiazol-2-yl)acetamide]
53.4 % of control | – | 106.2 % of control | Cn1c(CC(=O)N[C@@H]2CCCNC2=O)c2n(c1=S)C[C@@H](c1c(F)ccc(F)c1F)C2 [Example 354, 2-((R)-2-methyl-3-thioxo-6-(2,3,6-trifluorophenyl)-2,5,6,7-tetrahydro-3H-pyrrolo[1,2-c]imidazol-1-yl)-N—((R)-2-oxopiperidin-3-yl)acetamide]
72.9 % of control | 12.7 % of control | – | O=C(O)Cc1[nH]c(=S)n2c1C[C@@H](c1cc(Br)ccc1F)C2 [Example 16, (S)-2-(6-(5-bromo-2-fluorophenyl)-3-thioxo-2,5,6,7-tetrahydro-3H-pyrrolo[1,2-c]imidazol-1-yl)acetic Acid]
68.3 % of control | – | 101.9 % of control | Cn1c(CC(=O)N2CC[C@@H](F)C2)c2n(c1=S)C[C@@H](c1c(F)ccc(F)c1F)C2 [Example 292, 1-((R)-3-fluoropyrrolidin-1-yl)-2-((R)-2-methyl-3-thioxo-6-(2,3,6-trifluorophenyl)-2,5,6,7-tetrahydro-3H-pyrrolo[1,2-c]imidazol-1-yl)ethan-1-one]
